Test results from patent publication US20180235993A1 (priority 2000, published 2018).
Read-outs that look alike come from different tables or passages of the source.

Key:
[1] = system: Bovine Viral Diarrhea virus (BVDV); assay: microbe, parasite or virus in culture; type: cell-based; conditions: Bovine viral diarrhea virus isolates and strains, read-out: BVDV EC50
in vitro [2] = conditions: cattle
BVDV (strain NADL) = assay: Cell Protection Assay (CPA); type: cell-based, Bovine Viral Diarrhea virus; conditions: Bovine viral diarrhea virus isolates and strains
Protocol: The assay was performed essentially as described by Baginski, S. G.; Pevear, D. C.; Seipel, M.; Sun, S. C. C.; Benetatos, C. A.; Chunduru, S. K.; Rice, C. M. and M. S. Collett “Mechanism of action of a pestivirus antiviral compound” PNAS USA 2000, 97(14), 7981-7986. MDBK cells (ATCC) were seeded onto 96-well culture plates (4,000 cells per well) 24 hours before use. After infection with BVDV (strain NADL, ATCC) at a multiplicity of infection (MOI) of 0.02 plaque forming units (PFU) per cell, serial dilutions of test compounds were added to both infected and uninfected cells in a final concentration of 0.5% DMSO in growth medium. Each dilution was tested in quadruplicate. Cell densities and virus inocula were adjusted to ensure continuous cell growth throughout the experiment and to achieve more than 90% virus-induced cell destruction in the untreated controls after four days post-infection. After four days, plates were fixed with 50% TCA and stained with sulforhodamine B. The optical density of the wells was read in a microplate reader at 550 nm. The 50% effective concentration (EC50) values were defined as the compound concentration that achieved 50% reduction of cytopathic effect of the virus. FIGS. 4 and 5 provide a graphical illustration of the methodology used to arrive at the 50% effective concentration (EC50) values for β-D-2′-CH3-riboG and ribavirin. FIG. 6 compares the results of the CPA for β-D-2′-CH3-riboG, β-D-2′-CH3-riboC, riboU, β-D-2′-CH3-riboA and ribavirin

YFV-17D = assay: microbe, parasite or virus in culture; type: cell-based, Yellow fever virus vaccine strain 17D; conditions: Yellow fever virus, read-out: YFV EC50
BVDV = assay: Plaque Reduction Assay; type: cell-based, Bovine Viral Diarrhea virus; conditions: Bovine viral diarrhea virus isolates and strains
Protocol: For each compound the effective concentration was determined in duplicate 24-well plates by plaque reduction assays. Cell monolayers were infected with 100 PFU/well of virus. Then, serial dilutions of test compounds in MEM supplemented with 2% inactivated serum and 0.75% of methyl cellulose were added to the monolayers. Cultures were further incubated at 37° C. for 3 days, then fixed with 50% ethanol and 0.8% Crystal Violet, washed and air-dried. FIG. 7 is a graphical illustration of the results from the Plaque Reduction Assay. FIG. 8 is an image of BVDV plaque formation in the presence of increasing concentrations of β-D-2′-CH3-riboU.

[3] = Bioavailability assay in Cynomolgus monkeys; type: in vivo, Cynomolgus monkey; conditions: for Mean Norm AUC: mean of 3 monkeys
Protocol: Within 1 week prior to the study initiation, the cynomolgus monkey was surgically implanted with a chronic venous catheter and subcutaneous venous access port (VAP) to facilitate blood collection and underwent a physical examination including hematology and serum chemistry evaluations and the body weight was recorded. Each monkey (six total), received approximately 250 uCi of ^3H activity with each dose of active compound, namely β-D-2′-CH3-riboG at a dose level of 10 mg/kg at a dose concentration of 5 mg/mL, either via an intravenous bolus (3 monkeys, IV), or via oral gavage (3 monkeys, PO). Each dosing syringe was weighed before dosing to gravimetrically determine the quantity of formulation administered. Urine samples were collected via pan catch at the designated intervals (approximately 18-0 hours pre-dose, 0-4, 4-8 and 8-12 hours post-dosage) and processed. Blood samples were collected as well (pre-dose, 0.25, 0.5, 1, 2, 3, 6, 8, 12 and 24 hours post-dosage) via the chronic venous catheter and VAP or from a peripheral vessel if the chronic venous catheter procedure should not be possible. The blood and urine samples were analyzed for the maximum concentration (Cmax), time when the maximum concentration was achieved (Tmax), area under the curve (AUC), half life of the dosage concentration (T1/2), clearance (CL), steady state volume and distribution (Vss) and bioavailability (F), which are tabulated in Tables 2 and 3, and graphically illustrated in FIGS. 2 and 3, respectively.

in vitro [4] = assay: in vitro
[5] = cynomolgus monkey, blood, Cynomolgus monkeys, IV 10 mg/kg
[6] = cynomolgus monkey, blood, Cynomolgus monkeys, PO 10 mg/kg

With `CC1(O)[C@@H](O)[C@@H](CO)O[C@H]1n1cnc2c(=O)[nH]c(N)nc21` (stereo partly drawn) [β-D-2′-CH3-riboG] as the compound, how does the EC50 [1] read?
Its EC50 is 2 µM.

And the CC50 (in vitro [2])?
Its CC50 is 100 µM.

What about the EC50 (BVDV (strain NADL); 96 h, MDBK cells infected with BVDV, 50% reduction of cytopathic effect, four days, read-out: EC50) of the same compound?
Its EC50 is 4 µM.

And the EC50 (BVDV (strain NADL); Table 13, BVDV, read-out: Cell Protection (EC50))?
The EC50 was 4 µM.

What about the EC50 (YFV-17D) of the same compound?
Its EC50 is 1.2 µM.

What about the EC90 (BVDV; 72 h, concentration to obtain 90% virus suppression, 3 days, read-out: EC90) of the same compound?
The EC90 was under 9 µM.

What about the EC90 (BVDV; Table 13, BVDV, 90% virus suppression, read-out: Plaque Reduction (EC90)) of the same compound?
The EC90 was under 9 µM.

And the “Norm AUC” value ([3]; IV Monkey 1)?
Its value is 293.2 ng·h/mL/mg.

What about the “Norm AUC” value ([3]; IV Monkey 2) of the same compound?
Its value is 268.3 ng·h/mL/mg.

And the “Norm AUC” value ([3]; IV Monkey 3)?
The value was 293.4 ng·h/mL/mg.

What about the “Mean Norm AUC” value ([3]; IV) of the same compound?
Its value is 284.9 ng·h/mL/mg.

What about the “Norm AUC” value ([3]; PO Monkey 1) of the same compound?
Its value is 26.1 ng·h/mL/mg.

What about the “Norm AUC” value ([3]; PO Monkey 2) of the same compound?
The value was 29.0 ng·h/mL/mg.

What about the “Norm AUC” value ([3]; PO Monkey 3) of the same compound?
The value was 61.3 ng·h/mL/mg.

And the “Mean Norm AUC” value ([3]; PO)?
The value was 38.8 ng·h/mL/mg.

What about the F ([3]; Table 3, Cynomolgus monkeys, 10 mg/kg) of the same compound?
The F was 13.8%.

What about the bioavailability ([3]; cynomolgus monkey, blood, 10 mg/kg, Table 2, monkeys, PO vs IV, read-out: F (oral bioavailability)) of the same compound?
Its bioavailability is 13.6%.

And the AUC ([3]; cynomolgus monkey, blood, iv, 10 mg/kg, Cynomolgus monkeys, IV 10 mg/kg)?
The AUC was 8760 ± 4210 ng·h/mL.

And the AUC ([3]; cynomolgus monkey, blood, iv, 10 mg/kg, IV Monkey 1, dose 46.44 mg (10 mg/kg))?
The AUC was 13600 ng·h/mL.

And the AUC ([3]; cynomolgus monkey, blood, iv, 10 mg/kg, IV Monkey 2, dose 24.53 mg (10 mg/kg))?
The AUC was 6580 ng·h/mL.

And the AUC ([3]; cynomolgus monkey, blood, iv, 10 mg/kg, IV Monkey 3, dose 20.72 mg (10 mg/kg))?
The AUC was 6080 ng·h/mL.

And the AUC ([3]; cynomolgus monkey, blood, po, 10 mg/kg, Cynomolgus monkeys, PO 10 mg/kg)?
Its AUC is 1170 ± 590 ng·h/mL.

And the AUC ([3]; cynomolgus monkey, blood, po, 10 mg/kg, PO Monkey 1, dose 29.04 mg (10 mg/kg))?
Its AUC is 758 ng·h/mL.

And the AUC ([3]; cynomolgus monkey, blood, po, 10 mg/kg, PO Monkey 2, dose 30.93 mg (10 mg/kg))?
Its AUC is 898 ng·h/mL.

What about the AUC ([3]; cynomolgus monkey, blood, po, 10 mg/kg, PO Monkey 3, dose 30.04 mg (10 mg/kg)) of the same compound?
The AUC was 1840 ng·h/mL.

What about the Cmax [3, 5] of the same compound?
Its Cmax is 6950 ± 1890 ng/mL.

What about the Tmax [3, 5] of the same compound?
Its Tmax is 0.25 h.

What about the clearance [3, 5] of the same compound?
The clearance was 21.3 mL/min/kg.

And the half-life [3, 5]?
Its half-life is 7.9 ± 5.4 h.

And the Vd ([3]; cynomolgus monkey, blood, Cynomolgus monkeys, IV 10 mg/kg, read-out: Vss)?
The Vd was 2.09 ± 0.54 L/kg.

And the Cmax [3, 6]?
Its Cmax is 218 ± 132 ng/mL.

What about the Tmax [3, 6] of the same compound?
Its Tmax is 2 ± 1 h.

What about the half-life [3, 6] of the same compound?
The half-life was 10.3 ± 4.1 h.

What about the CC50 (in vitro [4]; cattle (Bos taurus)) of the same compound?
Its CC50 is over 100 µM.

What about the CC50 at 4 days (in vitro [4]; hamster) of the same compound?
The CC50 at 4 days was 20 µM.
